pIC50: −log10 of the molar value. “And” between values parts separate entries of the source, which are not always exact repeats. Identical values can stand only once. Like-named read-outs stand apart in the source and are kept apart here.
What was measured:
[1] = system: human foreskin fibroblasts (HFF); assay: HFF growth inhibition assay (SYBR Safe); assay type: cell-based
Method: Cells were incubated with a serial dilution of each compound, or media/DMSO alone. The protein synthesis inhibitor cycloheximide (10 μg/mL) was used as a positive control to determine background fluorescence. Approximately 5000 cells were seeded in each well. […] Plates were transferred to a −18° C. freezer. […] Fluorescence was read at 490 nm excitation/520 nm emission on a FLUOstar Optima fluorescence plate reader.
HFF cell growth inhibition assays began with 5000 cells per well. 10 μg/mL cycloheximide was used as a no-growth control.

[2] = system: P. falciparum gametocytes (stage III-IV); assay: Gametocyte viability assay (MitoTracker, flow cytometry); assay type: cell-based, Plasmodium falciparum
Text: Gametocyte assays begun eight days post-invasion (Stage III-IV).
(§1) Growth inhibition data were normalised by subtracting background fluorescence, luminescence, absorbance, or percentage of cells from a no-growth or no-viability control (high drug concentration, no-parasite control, or time=0 measurement as specified), and expressed as a percentage of the growth or cell percentage in the negative control (culture media alone or solvent control) at the indicated timepoint (or to the highest measurement reached during the assay for FIG. 15B).

[3] = system: P. berghei liver stage schizonts; assay: P. berghei liver stage parasite size and number (fluorescence microscopy) in Huh7 cells; assay type: cell-based, Plasmodium berghei; details: for Smaller parasite size (reduction): 48 hours post-infection, vs DMSO
Method: (§2) Huh7 cells were seeded at a density of 10 000 cells per well, or 20 000 per collagen-coated coverslip. […] Uninfected wells served as a control for background luminescence. […] Data are presented as a percentage of the size or parasite number of the solvent control to normalize for differences between experiments. For cell images presented in the figure, images were collected under optimal exposure settings to ensure features were visible. Individual cells were cropped from larger images with Fiji ImageJ, and the brightness was adjusted while ensuring that no fluorescence was removed. No other manipulations were performed.

[4] = system: human embryonic kidney cells (HEK293); assay: HEK293 cell viability assay (MTT); assay type: cell-based; details: 96 hours
Method: HEK293 cell viability assays began with 5000 cells per well. 10 μg/mL cycloheximide was used as a no-growth control. Metabolic capacity (indicating viability) was measured by incubation with 0.45 mg/mL methylthiazolyldiphenyl-tetrazolium bromide (MTT; Sigma M2128) for two hours followed by crystal solubilisation in SDS.

asexual P. falciparum = assay: Plasmodium growth inhibition assay (SYBR Safe), asexual stages; assay type: cell-based, Plasmodium falciparum; details: for IC90: read-out: IC90
Method: Compounds or solvent controls (DMSO, ethanol, or ethyl acetate) were serially diluted 2-fold across flat-bottom 96-well plates. Complete culture media without compound was used as a negative control. Chloroquine (100-200 nM) {Sigma C6628} was used as a positive control to determine background fluorescence. The parasitaemia of a culture containing predominantly ring stage parasites was counted by Giemsa smear. The parasitaemia was adjusted to 1% by addition of fresh uRBCs, and added to the plate at a final haematocrit of 1%, with 200 μL per well. The plates were incubated at 37° C. under humid microaerophilic conditions. […] Fluorescence was read at 490 nm excitation/520 nm emission on a FLUOstar Optima fluorescence plate reader {BMG Labtech}.
Growth inhibition data were normalised by subtracting background fluorescence from a no-growth control (high drug concentration or time=0 measurement as specified), and expressed as a percentage of the growth in the negative control (media alone or solvent control) either at the indicated timepoint, or to the highest measurement reached during the assay.
P. falciparum asexual parasite assays begun with ring-stage parasites at 1% parasitaemia and 1% haematocrit. 200 nM chloroquine (Sigma C6628) was used as a no-growth control. […] 17]; 8 (2):e54974).
as §1

[5] = system: Toxoplasma gondii tachyzoites; assay: Toxoplasma growth inhibition assay (tdTomato fluorescence); assay type: cell-based
Method: Fluorescent Toxoplasma gondii parasites were inoculated into an optical bottom 96-well plate containing confluent human foreskin fibroblast (HFF) host cells at a density of 2000 parasites/well, with a serial dilution of each compound, or media/DMSO alone. Plates were measured daily with a FluoStar Optima fluorescence plate reader at 540 nm excitation/590 nm emission for seven days, and the background fluorescence from the time 0 reading was subtracted from all other measurements.
Fluorescence was measured daily with a FluoStar Optima fluorescence plate reader for one week, and the background fluorescence from the time 0 reading was subtracted from all other measurements.
as §1

[6] = system: human hepatoma cells (Huh7); assay: Huh7 hepatoma viability assay (CellTiter-Blue); assay type: cell-based; details: 48 hours
Method: Huh7 hepatoma viability assays were conducted in the same manner as the P. berghei assays, with metabolic capacity (indicating viability) measured by incubation with CellTiter-Blue® (Promega) for 3 hours.

P. berghei liver stages = assay: P. berghei liver stage growth assay (luciferase) in Huh7 cells; assay type: cell-based, Plasmodium berghei
Method: as §2, §1

[7] = system: P. falciparum CAM3.IIREV (susceptible); assay: Ring stage survival assay, susceptible revertant strain; assay type: cell-based, Plasmodium falciparum; details: 700 nM for six hours, then 66 hours without drug
Text: (§3) The inventors tested these compounds in a ring stage survival assay, which allows the detection of resistant parasites against this […] drug and is the standard method for investigating resistance to artemisinin and its derivatives (Witkowski B, Menard D, Amaratunga C. Fairhurst R. Ring-stage Survival Assays (RSA) to evaluate the in-vitro and ex-vivo susceptibility of Plasmodium falciparum to artemisinins Procedure. Inst Pasteur du Cambodge—Natl Institutes Heal [Internet]. 2013 Sep. 11 [cited 2022 Jun. 19]; Procedure; available from: https://www.wwarn.org/sites/default/files/INV10-Standard-Operating-Procedure-Ring-Stage-Survival-Assays.pdf). This assay involves a short treatment window against newly-invaded ring stage parasites, followed by removal of drug pressure to mimic the clearance of the drug from plasma. We utilised two parasite strains: an isolate from Cambodia (CAM3.II) with a mutated Kelch-13 conferring resistance, and a genetically modified revertant of this strain (CAM3.IIREV) conferring drug susceptibility (Straimer J, Gnädig N F, Witkowski B, Amaratunga C, Duru V, Ramadani A P, et al. K13-propeller mutations confer artemisinin resistance in Plasmodium falciparum clinical isolates. Science (80-) [Internet]. 2015 Jan. 23 [cited 2022 Jun. 19]; 347(6220):428-31; available from: https://www.science.org/doi/10.1126/science.1260867).
(§4) Following tight synchronisation, CAM3.II and CAM3.IIREV ring stage parasites (0-3 hours post invasion) at 1% parasitaemia and 2% haematocrit were incubated with 700 nM of compounds or solvent-only controls for exactly six hours, before removing the drug, thoroughly washing in RPMI, and returning to culture conditions for a further 66 hours. Some cells were treated with 700 nM artesunate for 72 hours as a no-growth control. DNA replication (indicating growth) was measured at the specified time using SYBR Safe DNA Gel Stain. Microscope slide smears of each condition were stained with 10% v/v Giemsa and examined under a light microscope (1 000× magnification); with ‘viable’ (morphologically normal) and ‘non-viable’ (morphologically aberrant; vacuolated or pyknotic) parasites distinguished according to standard protocol (Witkowski B, Menard D, Amaratunga C, Fairhurst R. Ring-stage Survival Assays (RSA) to evaluate the in-vitro and ex-vivo susceptibility of Plasmodium falciparum to artemisinins Procedure. Inst Pasteur du Cambodge—Natl Institutes Heal [Internet]. 2013 Sep. 11 [cited 2022 Jun. 19]; Procedure. Available from: https://www.wwam.org/sites/default/files/INV10-Standard-Operating-Procedure-Ring-Stage-Survival-Assays.pdf). Images were captured using a Leica ICC50 camera, with a resolution of 76 nm per pixel.

[8] = system: P. falciparum CAM3.II (mutated Kelch-13, resistant); assay: Ring stage survival assay, resistant strain; assay type: cell-based, Plasmodium falciparum; details: 700 nM for six hours, then 66 hours without drug
Text: as §3, §4

[9] = in vivo; cited from earlier work

COc1cc(NC(C)CCCNC(=O)CCC(=O)O[C@H]2CC[C@H]3[C@@H]4CC=C5C[C@@H](O)CC[C@]5(C)[C@H]4CC[C@]23C)c2ncccc2c1 (stereo partly drawn) [C-17-prim, 3β-Hydroxyandrost-5-en-17β-yl succinate-primaquine amide]
Concentration with substantial effect on fibroblast growth ([1]; 72 hours): 10 µM | Maximal inhibition of HFF growth at the range of concentrations tested ([1]; 72 hrs): ≤ 30% | Fold reduction in IC50 compared to primaquine alone ([2]; 48 hours): 9 fold | pIC50 ([2]; Plasmodium falciparum, 48 h, read-out: IC50, gametocyte viability): 5.16 | Smaller parasite size (reduction) ([3]; 0.3 μM): 48% | Smaller parasite size (reduction) ([3]; 3 μM): 90% | Parasite number (per coverslip) ([3]; 0.3 or 3 μM, compared to the same concentration of primaquine or DMSO-only control): significantly lower | Concentration at which gradual cytotoxicity emerges [4]: 10 µM | Fold lower IC50 than primaquine alone (asexual P. falciparum): ~4 fold | Fold difference in IC90 vs primaquine (asexual P. falciparum; 24 hours): ~8 fold | Hill slope of inhibitory curve (asexual P. falciparum; 24 hours): −4.56 | Hill slope of inhibitory curve (asexual P. falciparum; 72 hours): −4.20 | pIC50 (asexual P. falciparum; Plasmodium falciparum, 24 hours, starting with ring-stage parasites, FIG. 14B, read-out: IC50): 5.51 | IC90 (asexual P. falciparum; Plasmodium falciparum, 24 hours): 5 µM | IC90 (asexual P. falciparum; Plasmodium falciparum, 72 hours exposure time): 4 µM | Fold lower IC50 than primaquine ([5]; 72 hours): ~3.5 fold | pIC50 ([5]; Toxoplasma gondii, 72 h, read-out: IC5 against T. gondii): 5.55 | Cell viability over the range of concentrations [6]: > 50% | Concentration at which cytotoxic effect was detected ([6]; effect on cellular integrity / modest cytotoxicity): 3 µM | Fold reduction in IC50 compared to primaquine alone (P. berghei liver stages; 48 hours): ~15 fold | pIC50 (P. berghei liver stages; Plasmodium berghei, Huh-7, 48 hours of treatment from sporozoite inoculation, Huh7 cells, FIG. 16A): 6.70

C[C@H]1[C@H](OC(=O)CCC(=O)O)O[C@@H]2O[C@@]3(C)CC[C@H]4[C@H](C)CC[C@@H]1[C@@]24OO3 [artesunate, reference compound]
Morphology in Giemsa-stained smears [7]: only morphologically aberrant parasites were present | Morphology in Giemsa-stained smears [8]: a combination of morphologically normal parasites and morphologically aberrant pyknotic or vacuolated forms | Parasite survival (DNA replication) ([8]; FIG. 17B): > 30% and ~30% | Half-life in blood [9]: 30 to 90 min

— patent publication US20250099488A1, “ANTI-PARASITE COMPOUNDS” (AUSTRALIAN NATIONAL UNIVERSITY, priority 2022, published 2025)
